Tests used:
[1] = test system: crude extract of COS-7 cells with pCXNKSST introduced; assay: Sulfotransferase activity for various glycosaminoglycan receptors, crude extract (Reaction Mixture II); format: biochemical; details: 25 nmol glycosaminoglycan as receptor
Method: (§1) Activity for various kinds of glycosaminoglycans as the substrate was assayed by using 25 nmol (as galactosamine for chondroitin sulfate (A and C) and dermatan sulfate, and as glucosamine for keratan sulfate and CDSNS-heparin (completely desulfated, N-sulfated heparin, available from Seikagaku Corp.)) of glycosaminoglycan instead of keratan sulfate.
(§2) In the above both cases, the reaction mixtures were incubated at 37° C. for 20 minutes, and the reaction was stopped by immersing reaction tubes into boiling water for one minute.
(§3) After stopping the reaction, 0.1 μmol (as glucuronic acid) of chondroitin sulfate A was added as a carrier, and 3 volumes of ethanol containing 1.3% potassium acetate was added to the reaction mixture to precipitate ^35 S-labeled polysaccharide. The reaction mixture was centrifuged at 10,000×g for 10 minutes, and the resulting precipitates were dissolved in 70 μl of water. The resulting solution (50 μl) was loaded on a desalting column equilibrated with 0.1 M NH4 HCO3, and the eluted fractions containing the ^35 S-labeled polysaccharide were collected. Scintillation cocktail (1 ml, Clearsol, Nakarai Tesque) was added to 200 μl of each of the obtained fractions, and incorporation of ^35 S into the polysaccharide was determined by assaying ^35 S-radioactivity. Activity catalyzing transfer of 1 pmol sulfate group/minute was defined as 1 unit.
(§4) The adsorbed fraction was eluted with Buffer A containing 0.5 M NaCl, and the eluate was dialyzed against Buffer A containing 50 mM NaCl. The dialysate was used as KSST not containing CST. […] For the activity assay, 25 nmol (as galactosamine for chondroitin, chondroitin sulfate A, chondroitin sulfate C and dermatan sulfate, and as glucosamine for keratan sulfate and CDSNS-heparin) of glycosaminoglycan was used instead of the keratan sulfate contained in the standard reaction mixture.

[2] = test system: sulfotransferase activity; assay: Sulfotransferase activity of pCXNKSST-transfected COS-7 cells with other sulfate group receptors; format: cell-based; details: COS-7 cells with KSST cDNA in the correct direction, substance used as sulfate group receptor
Text: This cDNA was introduced into a plasmid (pCXN2) (a recombinant plasmid where the direction of the promoter is conformed with that of the cDNA was designated as pCXNKSST, and recombinant plasmid where the cDNA was inserted in a reversed direction was designated as pCXNKSST2), and COS-7 cells were transfected with the obtained plasmids by the method described above. […] When dermatan sulfate, heparan sulfate, or completely desulfated, N-sulfated heparin (CDSNS-heparin) was used as the sulfate group receptor, no increase of sulfotransferase activity was observed.

[3] = target: T1, partially purified KSST (KSGal6ST) (Homo sapiens, UniProt O43916); assay: Sulfotransferase activity for various glycosaminoglycan receptors, partially purified KSST (Reaction Mixture II); format: biochemical; design: made in house; host or cells: COS-7 cells transfected with pCXNKSST (pCXN2 vector); extract partially purified over DEAE-Sephadex A-50 (non-adsorbed fraction) and Heparin-Sepharose CL-6B; details: for Sulfotransferase activity, Partially purified product: 25 nmol glycosaminoglycan as receptor, Reaction Mixture II, after Heparin-Sepharose CL-6B; for sulfotransferase activity for this receptor relative to keratan sulfate sulfotransferase activity after the purification: partially purified product
T1 sequence (O43916 1-411): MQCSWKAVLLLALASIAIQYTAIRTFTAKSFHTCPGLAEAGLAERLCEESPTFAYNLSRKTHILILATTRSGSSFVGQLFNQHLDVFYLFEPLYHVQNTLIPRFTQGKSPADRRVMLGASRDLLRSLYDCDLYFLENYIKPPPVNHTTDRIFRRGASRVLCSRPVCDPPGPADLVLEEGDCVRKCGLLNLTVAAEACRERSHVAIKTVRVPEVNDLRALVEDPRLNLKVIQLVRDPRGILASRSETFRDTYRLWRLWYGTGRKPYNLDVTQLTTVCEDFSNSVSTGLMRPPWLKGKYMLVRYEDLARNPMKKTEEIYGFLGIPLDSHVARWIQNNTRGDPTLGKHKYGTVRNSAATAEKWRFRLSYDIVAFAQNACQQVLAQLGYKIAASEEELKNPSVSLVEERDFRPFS
Method: as §1, §2, §3
Homogenate of COS-7 cells with pCXNKSST introduced from 80 dishes (224 mg as protein) was applied to a DEAE-Sephadex A-50 column (Pharmacia, 2.2×13 cm) equilibrated with Buffer A. The column was washed with 500 ml of Buffer A , and then the adsorbed fraction was eluted with Buffer A containing 0.5 M NaCl.
as §4

[4] = target: T1, partially purified KSST (KSGal6ST); assay: Effect of added salts and dithiothreitol on KSST activity (Reaction Mixture II); format: biochemical; design: made in house; host or cells: COS-7 cells transfected with pCXNKSST (pCXN2 vector); extract partially purified over DEAE-Sephadex A-50 (non-adsorbed fraction) and Heparin-Sepharose CL-6B; details: for Sulfotransferase activity with added salt: salt at final concentration of 5 mM instead of CaCl2, keratan sulfate receptor, Reaction Mixture II
Method: (§5) Characterization of the KSST partially purified as described above was performed.

[5] = target: T1, partially purified KSST (KSGal6ST); details: read-out: Km value for PAPS (sulfate group donor)
Method: as §5

[6] = substrate: Nc1ncnc2c1ncn2[C@@H]1O[C@H](COP(=O)(O)OS(=O)(=O)O)[C@@H](OP(=O)(O)O)[C@H]1O; assay: purified protein, by the assay type

## Dermatan sulfate
[1]
  Sulfotransferase activity, Crude extract: 0.005 pmol/minute/mg protein × 10^-2
[2]
  increase of sulfotransferase activity with this sulfate group receptor: no increase
[3]
  Sulfotransferase activity, Partially purified product: 0.02 pmol/minute/mg protein × 10^-2

## [Cl][Mn][Cl] [MnCl2]
[4]
  Sulfotransferase activity with added salt: 28.0 pmol/minute/mg protein
[4]; salts at 5 mM
  effect on KSST activity: most strongly enhanced the KSST activity

## [Cl-].[Cl-].[Sr+2] [SrCl2]
[4]
  Sulfotransferase activity with added salt: 21.6 pmol/minute/mg protein

## [Cl][Ni][Cl] [NiCl2]
[4]
  Sulfotransferase activity with added salt: 10.0 pmol/minute/mg protein

## Nc1ncnc2c1ncn2[C@@H]1O[C@H](COP(=O)(O)OS(=O)(=O)O)[C@@H](OP(=O)(O)O)[C@H]1O [PAPS, 3'-phosphoadenosine 5'-phosphosulfate]
[5]
  Km: ~0.2 µM

## [Cl-].[Cl-].[Mg+2] [MgCl2]
[4]
  Sulfotransferase activity with added salt: 18.8 pmol/minute/mg protein

## completely desulfated, N-sulfated heparin [CDSNS-heparin]
[1]
  Sulfotransferase activity, Crude extract: 0.109 pmol/minute/mg protein × 10^-2
[2]
  increase of sulfotransferase activity with this sulfate group receptor: no increase
[3]
  Sulfotransferase activity, Partially purified product: 0.05 pmol/minute/mg protein × 10^-2
  sulfotransferase activity for this receptor relative to keratan sulfate sulfotransferase activity after the purification: ≤ 2%

## Chondroitin
[1]
  Sulfotransferase activity, Crude extract: 0.016 pmol/minute/mg protein × 10^-2
[3]
  Sulfotransferase activity, Partially purified product: 0.03 pmol/minute/mg protein × 10^-2
  sulfotransferase activity for this receptor relative to keratan sulfate sulfotransferase activity after the purification: ≤ 2%

## [Cl-].[Cl-].[Zn+2] [ZnCl2]
[4]
  Sulfotransferase activity with added salt: 1.5 pmol/minute/mg protein

## Protamine Chloride
[4]
  Sulfotransferase activity with added salt: 8.8 pmol/minute/mg protein

## heparan sulfate
[2]
  increase of sulfotransferase activity with this sulfate group receptor: no increase

## [Ca+2].[Cl-].[Cl-] [CaCl2]
[4]
  optimum concentration for KSST activity: about 10 mM
  Sulfotransferase activity with added salt: 26.2 pmol/minute/mg protein
[4]; salts at 5 mM
  effect on KSST activity: most strongly enhanced the KSST activity

## [Cl][Cu][Cl] [CuCl2]
[4]
  Sulfotransferase activity with added salt: 10.0 pmol/minute/mg protein

## O[C@H](CS)[C@H](O)CS (racemic) [Dithiothreitol]
[4]; concentration up to 10 mM
  effect on KSST activity: did not affect the KSST activity

## Chondroitin sulfate C
[1]
  Sulfotransferase activity, Crude extract: 0.005 pmol/minute/mg protein × 10^-2
[3]
  Sulfotransferase activity, Partially purified product: 0.02 pmol/minute/mg protein × 10^-2

## [Ba+2].[Cl-].[Cl-] [BaCl2]
[4]
  Sulfotransferase activity with added salt: 21.0 pmol/minute/mg protein

## Keratan sulfate
[1]
  Sulfotransferase activity, Crude extract: 0.168 pmol/minute/mg protein × 10^-2
[3]
  Sulfotransferase activity, Partially purified product: 2.51 pmol/minute/mg protein × 10^-2

## [Cl-].[Cl-].[Co+2] [CoCl2]
[4]
  Sulfotransferase activity with added salt: 24.6 pmol/minute/mg protein

## O=S(=O)([O-])[O-].[Fe+2] [FeSO4]
[4]
  Sulfotransferase activity with added salt: 3.0 pmol/minute/mg protein

## Chondroitin sulfate A
[1]
  Sulfotransferase activity, Crude extract: 0.009 pmol/minute/mg protein × 10^-2
[3]
  Sulfotransferase activity, Partially purified product: 0.03 pmol/minute/mg protein × 10^-2

B1: partially purified KSST (KSGal6ST) (Homo sapiens) (protein)
chain: T1 sequence (O43916 1-411)
[6]
  Km: 0.2 µM

Reference: US6051406A, “Keratan sulfate 6-sulfotransferase and DNA coding for the same” (Seikagaku Kogyo Kabushiki Kaish, priority 1996, dated 2000)
